Assay results: US20100204340A1 (priority 2009, published 2010)
≈ marks a conversion by molar mass, not a printed value. Where two headings read alike, the source gives them in different places.

How the values were obtained:
Type in all cases: cell-based
[1] = tested on: 3T3-L1 mouse adipocyte cells; assay: Adipogenesis inhibitory assay (Oil Red-O staining); conditions: for IC50: Mus musculus, 3T3-L1, Oil Red-O, OD 492 nm, read-out: IC50, inhibition of adipogenesis; for Adipogenesis inhibitory potential relative to Resveratrol: times more effective / superior than resveratrol
Experimental: A common assay to measure adipocyte differentiation in cell culture is with the dye Oil Red-O, which is a lipid-soluble red dye. Since terminal differentiation of adipocytes is accompanied by the accumulation of great amounts of lipids in large cytoplasmic vesicles, a strong, bright, staining of the cytoplasm with this dye is a reliable indicator of adipocyte differentiation.
3T3-L1 mouse adipocyte cells are seeded at a density of 5000 cell/200 μl of adipocyte induction medium in a 96 well plate. After 48 hrs varying concentrations of the sample are added. After 72 hrs, the medium is changed to adipocyte progression medium along with the sample. The medium is similarly changed after another 48 hours. The plates are washed gently after 48 hrs with 100 μl of PBS. 100 μl of 10% formalin is used to fix the cells for 30 min keeping at RT. The cells are then washed twice with 60% isopropanol gently. 100 μl of clear Oil red O stain is added to the wells & kept for staining for 1 hr. The cells are then washed with 70% Ethanol twice, once with PBS and air dried. Then 100 μl of 4% triton×100 in isopropanol is added to all the wells covered tightly & kept it in a shaker for 20 min at […]. The OD reading is taken at 492 nm in microplate reader.
The results are expressed as IC50 values using Graphpad prism software. The percentage of inhibition of adipogenesis is calculated as follows,
Where C-absorbance due to adipogenesis in untreated cells T-absorbance due to adipogenesis in sample treated cells
Note: IC50 is the concentration required for 50% inhibition of adipogenesis. Lower IC50 indicates better efficacy.

[2] = tested on: Propionibacterium acnes ATCC 11827; assay: Disc diffusion method, zone of inhibition
Source text: Method: Disc diffusion method was done to study Minimum inhibitory concentration (MIC).
Materials • 1. Propionibacterium acnes ATCC 11827 • 2. Physiological saline or Buffered peptone water (BPW). • 3. Reinforced clostridium medium (RCM) Hi-media • 4. Reinforced clostridium agar (RCA) Hi-media • 5. Anaerobic chamber. • 6. Gassing manifold Nitrogen, mixed gases. • 7. Spectrophotometer (600 nm to 625 nm). • 8. Sterile Petri plates (150 mm×90 mm). • 9. Sterile micro pipettes and sterile micro tips. • 10. Sterile disc 6 mm. • 11. Samples tested: Resveratrol (Batch No.: C81173) and 3-Hydroxypsterostilbene (Batch No.: P80096)
The chamber used in the study is of COY LABORATORY USA model 8301-230, 3 ft polymer. The anaerobic chamber consists of a main chamber where in all the operations and incubation of the culture are carried out and a transfer chamber which is meant for taking the materials in and out of the equipment. The main chamber is provided with a heated fan box in order to maintain the required temperature (37° C.) and to circulate the air in the chamber. A catalyst stakpak is fixed to this fan box which consists of palladium catalyst, which is meant to convert oxygen to water molecules by reacting with hydrogen molecules. The anaerobic condition in the chamber for this is maintained by initialization with Nitrogen gas and then by the Mixture gas of N2+H2+CO2 in the proportion 80:10:10. Two gas tank arrangements have been done where only N2 is connected to the transfer chamber.
To carry out the antimicrobial activity of the products against P.acnes the organism was first cultured in the anaerobic conditions. Culture was inoculated into pre-sterile reinforced Clostridium medium (RCM) and incubated at anaerobic condition for 24 hrs. 24 hr to 48 hrs culture at Optical Density @625 nm was determined 0.632 (1:2 dilution) 4.0 Macfarland standards.
30 ml of sterilized RCM was poured into the pre-sterile Petri plates inside the chamber and allowed to solidify. The culture was inoculated (0.2 ml/plate) and spread evenly. After 30 minutes, antibacterial sterile discs (6 mm) were dispensed. […] 10 μl of the prepared sample and controls were dispensed onto the discs. The plates were incubated inside the anaerobic chamber at 37° C. for 24 to 48 hours duration.

[3] = tested on: Propionibacterium acnes ATCC 11827; assay: Broth dilution method, inhibitory concentration (IC50, IC100); conditions: for inhibition at 41.6 µg/mL / inhibition at 83.3 µg/mL / inhibition at 166 µg/mL / inhibition at 332 µg/mL / inhibition at 498 µg/mL / IC50 / inhibition at 16.6 µg/mL: Cutibacterium acnes, ATCC11827
Source text: Method: Broth dilution method to evaluate the inhibitory concentration (IC).
Materials • 1. Propionibacterium acnes ATCC: 11827 • 2. Physiological saline or Buffered peptone water (BPW). • 3. Reinforced clostridium medium (RCM) Hi-media • 4. Actinomyces broth (AC broth) Hi-media • 5. Anaerobic chamber. • 6. Gassing manifold Nitrogen, mixed gases. • 7. Spectrophotometer (600 nm to 625 nm). • 8. Sterile tubes • 9. Micro Pipette • 10. Sterile micro tips. • 11. (DMSO) dimethylsulphoxide
The strain Propionibacterium acnes (ATCC 11827) was obtained from ATCC. The inhibitory concentration (IC) of the given sample was determined by broth dilution method according to NCCLS guidelines. The IC50 was defined as that concentration of compound that reduced bacterial growth by 50% as determined spectrophotometrically. IC100 was defined as the lowest concentration of compound that inhibited bacterial growth by 100%. Resveratrol and 3-Hydroxypsterostilbene are water insoluble. Therefore samples were dissolved in DMSO and than added to Actinomyces broth to a final concentration of 0-500 mg/L. Twenty-four hour cultures of P.acnes were adjusted to 1×10^8 cfu/ml using McFarland standards and inoculated to Actinomycetes broth containing a specific concentration of compound. Controls containing just DMSO were also included in the test. Cultures were incubated anaerobically at 37° C. and read spectrophotometrically at 600 nm both at 24 h and 48 h incubation periods. IC50 and IC100 values were calculated from these observations.

[4] = sample 5.0 % (w/v) in DMSO, 10 μl per 6 mm disc
[5] = 16.6 mg/L, 24 h, IC n = n % inhibition of bacterial growth
[6] = 16.6 mg/L, 48 h, IC n = n % inhibition of growth
[7] = 41.6 mg/L, 24 h, IC n = n % inhibition of growth
[8] = 41.6 mg/L, 48 h, IC n = n % inhibition of growth
[9] = 83.3 mg/L, 24 h, IC n = n % inhibition of growth
[10] = 83.3 mg/L, 48 h, IC n = n % inhibition of growth
[11] = 166 mg/L, 24 h, IC n = n % inhibition of growth
[12] = 166 mg/L, 48 h, IC n = n % inhibition of growth
[13] = 332 mg/L, 24 h, IC n = n % inhibition of growth
[14] = 332 mg/L, 48 h, IC n = n % inhibition of growth
[15] = P. acnes ATCC 11827, 24 h, read-out: IC50 24 h
[16] = P. acnes ATCC 11827, 48 h, read-out: IC50 48 h

Compound | IC50 [1] | Zone of inhibition ([2]; sample 0.078 % (w/v) in DMSO) | Zone of inhibition ([2]; sample 0.156 % (w/v) in DMSO) | Zone of inhibition ([2]; sample 0.625 % (w/v) in DMSO) | Zone of inhibition ([2]; sample 1.25 % (w/v) in DMSO) | Zone of inhibition ([2]; sample 2.5 % (w/v) in DMSO) | Zone of inhibition [2, 4] | OD @ 600 nm 24 h ([3]; 16.6 mg/L, 24 h, dilution 1:2) | OD @ 600 nm 48 h ([3]; 16.6 mg/L, 48 h, dilution 1:2) | OD @ 600 nm 24 h ([3]; 41.6 mg/L, 24 h, dilution 1:2) | OD @ 600 nm 48 h ([3]; 41.6 mg/L, 48 h, dilution 1:2) | Concentration showing 100% inhibition of Propionibacterium acnes ([3]; 24 hours of incubation) | Concentration showing 100% inhibition of Propionibacterium acnes ([3]; 48 hours of incubation) | inhibition at 41.6 µg/mL [3, 7] | inhibition at 41.6 µg/mL [3, 8] | inhibition at 83.3 µg/mL [3, 9] | inhibition at 83.3 µg/mL [3, 10] | inhibition at 166 µg/mL [3, 11] | inhibition at 166 µg/mL [3, 12] | inhibition at 332 µg/mL [3, 13] | further results
Oc1ccc(/C=C/c2cc(O)cc(O)c2)cc1 [Resveratrol, 3,4′,5-trihydroxy-trans-stilbene] | 25 µM | No zone | No zone | 10.0 mm | 12.0 mm | 13.0 mm | 13.0 mm | 1.027 | 0.884 | 0.777 | 0.593 | 332 mg/mL | 498 mg/mL | 17% | 27% | 55% | 30% | 75% | 68% | 100% | Concentration required to produce a zone of inhibition of 10 mm ([2]; disc diffusion, 0.625% w/v): 6.25 mg/mL; Zone of inhibition ([2]; sample 0.31 % (w/v) in DMSO (3.12 mg/ml)): No zone; (IC) Inhibitory concentration [3, 5]: No inhibition; (IC) Inhibitory concentration [3, 6]: No inhibition; OD @ 600 nm 24 h ([3]; 83.3 mg/L, 24 h, dilution 1:2): 0.423; OD @ 600 nm 48 h ([3]; 83.3 mg/L, 48 h, dilution 1:2): 0.573; OD @ 600 nm 24 h ([3]; 166 mg/L, 24 h, dilution 1:2): 0.232; OD @ 600 nm 48 h ([3]; 166 mg/L, 48 h, dilution 1:2): 0.268; OD @ 600 nm 24 h ([3]; 332 mg/L, 24 h, dilution As such): 0.00; OD @ 600 nm 48 h ([3]; 332 mg/L, 48 h, dilution As such): 0.11; OD @ 600 nm 48 h ([3]; 498 mg/L, 48 h, dilution As such): 0.00; inhibition at 332 µg/mL [3, 14]: 85%; inhibition at 498 µg/mL ([3]; 498 mg/L, 24 h, IC n = n % inhibition of growth): 100%; inhibition at 498 µg/mL ([3]; 498 mg/L, 48 h, IC n = n % inhibition of growth): 100%; IC50 [3, 15]: 83 µg/mL (≈ 364 µM); IC50 [3, 16]: 120 µg/mL (≈ 526 µM); IC100 24 h ([3]; P. acnes ATCC 11827, 24 h): 332.0 mg/L; IC100 48 h ([3]; P. acnes ATCC 11827, 48 h): 498 mg/L
COc1cc(/C=C/c2ccc(O)c(O)c2)cc(OC)c1 [3-hydroxypterostilbene] | 0.00483 µM | No zone | No zone | 13.0 mm | 15.0 mm | 17.0 mm | 18.0 mm | 0.526 | 0.443 | 0.352 | 0.338 | 83.3 mg/mL | 83 mg/mL | 62% | 62% | 98% | 98% | 100% | 100% | 100% | Adipogenesis inhibitory potential relative to Resveratrol [1]: about 5000 times; Adipogenesis inhibitory potential relative to Resveratrol ([1]; listed as 3,5-dimethoxy-3,4′-dihydroxystilbene): 5000 times; Zone of inhibition ([2]; sample 0.31 % (w/v) in DMSO (3.12 mg/ml), listed as 3-Hydroxy Pterostilbene): 10.0 mm; Zone of inhibition ([2]; sample 0.31 % (w/v) in DMSO (3.12 mg/ml), listed as 3-Hydroxy pterostilbene): 10 mm; OD @ 600 nm 24 h ([3]; 83.3 mg/L, 24 h, dilution As such): 0.047; OD @ 600 nm 48 h ([3]; 83.3 mg/L, 48 h, dilution As such): 0.073; inhibition at 16.6 µg/mL [3, 5]: 45%; inhibition at 16.6 µg/mL [3, 6]: 45%; inhibition at 332 µg/mL [3, 14]: 100%; IC50 [3, 15]: 33.5 µg/mL (≈ 123 µM); IC50 [3, 16]: 35.8 µg/mL (≈ 131 µM); IC100 24 h ([3]; P. acnes ATCC 11827, 24 h): 83.3 mg/L; IC100 48 h ([3]; P. acnes ATCC 11827, 48 h): 83.0 mg/L
